For 22 compounds, IC50 results are on record in ChEMBL document CHEMBL4823314, “Design, synthesis and biological evaluation of novel acridine and quinoline derivatives as tubulin polymerization inhibitors with anticancer activities” (Bioorg Med Chem, 2021).

By IC50 is commonly meant the point on the concentration scale where inhibition reaches its midpoint.

The first test has as its system HeLa. In words: cells. The settings on record: Homo sapiens, 48 h.
Description: Antiproliferative activity against human HeLa cells assessed as reduction in cell viability measured after 48 hrs by MTT assay
In the case of `CCCCN(c1cc(OC)c(OC)c(OC)c1)c1ccnc(C)n1`, the IC50 was 17 µM.

Compound `CCCCN(c1ccnc(C)c1)c1cc(OC)c(OC)c(OC)c1` came in with an IC50 of 16.8 µM.

For `c1ccc(Nc2cccc3ncccc23)cc1`, 30.7 µM corresponded to half-maximal inhibition (IC50).

In the case of `COc1cc(N(C)c2ccnc(C)n2)cc(OC)c1OC`, the midpoint of inhibition, the IC50, lay at 16.2 µM.

`CCCCN(c1cc(OC)c(OC)c(OC)c1)c1cccc2ncccc12` displayed an IC50 of 9.29 µM.

The compound `CCCCN(c1ccc(OC)cc1)c1c2ccc(Cl)cc2nc2ccc(OC)cc12` gave an IC50 of 9.82 µM.

`CCCCN(c1cc(OC)c(OC)c(OC)c1)c1ccnc2cc(Cl)ccc12` showed a 50% inhibitory concentration (IC50) of 17.3 µM.

In turn, `COc1ccc(/C=C\c2cc(OC)c(OC)c(OC)c2)cc1O` [COMBRETASTATIN A4] came in with an IC50 of 0.023 µM.

As for `CCCCN(c1ccccc1)c1cccc2ncccc12`, it took 29.9 µM to reach half-maximal inhibition (IC50).

In turn, `CCCCN(c1ccc(F)c(Cl)c1)c1cccc2ncccc12` returned a half-inhibitory concentration (IC50) of 32.1 µM.

The compound `COc1cc(Nc2cccc3ncccc23)cc(OC)c1OC` registered an IC50 of 2.8 µM.

`CCCCN(c1ccc(OC)cc1)c1cccc2ncccc12` yielded a half-inhibitory concentration (IC50) of 3.06 µM.

In the case of `COc1ccc(Nc2c3ccc(Cl)cc3nc3ccc(OC)cc23)cc1`, the IC50 is 7.2 µM.

`CCCCN(c1ccc(OC)cc1)c1ccnc(C)n1` returned an IC50 of 8.61 µM.

`COc1cc(Nc2ccnc3cc(Cl)ccc23)cc(OC)c1OC` gave an IC50 of 8.65 µM.

The compound `CN(c1ccccc1)c1cccc2ncccc12` gave an IC50 of 24 µM.

`COc1ccc(N(C)c2ccnc(C)n2)cc1`: the midpoint of inhibition, the IC50, lay at 6.12 µM.

As for `COc1ccc(Nc2c3ccccc3nc3ccccc23)cc1`, the IC50 was found to be 3.67 µM.

As for `CCCCN(c1cc(OC)c(OC)c(OC)c1)c1c2ccccc2nc2ccccc12`, the IC50 was determined as 5.3 µM.

Turning to `CCCCN(c1ccc(OC)cc1)c1c2ccccc2nc2ccccc12`, half-maximal inhibition (IC50) required 8.65 µM.

For `COc1ccc(N(C)c2ccnc3cc(Cl)ccc23)cc1`, half-maximal inhibition (IC50) was put at 2.67 µM.

`COc1ccc(Nc2cccc3ncccc23)cc1` showed an IC50 of 4.16 µM.

The subject of another test is HepG2. The experiment in a line: Antiproliferative activity against human HepG2 cells assessed as reduction in cell viability measured after 48 hrs by MTT assay. The settings on record: HepG2, 48 h. Format: functional, cell-based. In general terms: Formazan colour is commonly taken as a measure of viable cells.
For the compound `CCCCN(c1cc(OC)c(OC)c(OC)c1)c1ccnc(C)n1`, the IC50 is 16.8 µM.

For the compound `CCCCN(c1ccnc(C)c1)c1cc(OC)c(OC)c(OC)c1`, the IC50 came out at 15.6 µM.

On to `c1ccc(Nc2cccc3ncccc23)cc1`, for which the IC50 stood at 26.8 µM.

`COc1cc(N(C)c2ccnc(C)n2)cc(OC)c1OC`: the IC50 was 12.7 µM.

Take `CCCCN(c1cc(OC)c(OC)c(OC)c1)c1cccc2ncccc12`: the IC50 worked out at 7 µM.

For `CCCCN(c1ccc(OC)cc1)c1c2ccc(Cl)cc2nc2ccc(OC)cc12`, the IC50 turned out to be 8.16 µM.

Consider `CCCCN(c1cc(OC)c(OC)c(OC)c1)c1ccnc2cc(Cl)ccc12`, for which the IC50 is 15.4 µM.

With `CCCCN(c1ccccc1)c1cccc2ncccc12`, the IC50 is 22.1 µM.

As to `CCCCN(c1ccc(F)c(Cl)c1)c1cccc2ncccc12`, the IC50 turned out to be 26.7 µM.

Regarding `COc1cc(Nc2cccc3ncccc23)cc(OC)c1OC`, the concentration for half-maximal inhibition (IC50) was found to be 0.783 µM.

In the case of `CCCCN(c1ccc(OC)cc1)c1cccc2ncccc12`, the IC50 was determined as 1.37 µM.

With `COc1ccc(Nc2c3ccc(Cl)cc3nc3ccc(OC)cc23)cc1`, the IC50 was 3.19 µM.

For the compound `CCCCN(c1ccc(OC)cc1)c1ccnc(C)n1`, the half-inhibitory concentration (IC50) came to 6.71 µM.

On to `COc1cc(Nc2ccnc3cc(Cl)ccc23)cc(OC)c1OC`, for which the IC50 came to 6.82 µM.

As to `CN(c1ccccc1)c1cccc2ncccc12`, the IC50 stood at 16 µM.

`COc1ccc(N(C)c2ccnc(C)n2)cc1`: the IC50 came to 1.4 µM.

For the compound `COc1ccc(Nc2c3ccccc3nc3ccccc23)cc1`, the IC50 was 1.47 µM.

As to `CCCCN(c1cc(OC)c(OC)c(OC)c1)c1c2ccccc2nc2ccccc12`, the concentration for half-maximal inhibition (IC50) was 3.55 µM.

Turning to `CCCCN(c1ccc(OC)cc1)c1c2ccccc2nc2ccccc12`, the IC50 worked out at 3.44 µM.

Turning to `COc1ccc(N(C)c2ccnc3cc(Cl)ccc23)cc1`, the half-inhibitory concentration (IC50) was 0.939 µM.

For the compound `COc1ccc(Nc2cccc3ncccc23)cc1`, the IC50 was 3.79 µM.

A further test has as its system B16-F10. The experiment in a line: Antiproliferative activity against mouse B16-F10 cells assessed as reduction in cell viability measured after 48 hrs by MTT assay. Format: functional, cell-based. The settings on record: B16-F10, 48 h.
Consider `CCCCN(c1cc(OC)c(OC)c(OC)c1)c1ccnc(C)n1`, for which the IC50 worked out at 19.3 µM.

For `CCCCN(c1ccnc(C)c1)c1cc(OC)c(OC)c(OC)c1`, the half-inhibitory concentration (IC50) was 18.4 µM.

In the case of `c1ccc(Nc2cccc3ncccc23)cc1`, the half-maximal inhibitory concentration (IC50) worked out at 28.6 µM.

Turning to `COc1cc(N(C)c2ccnc(C)n2)cc(OC)c1OC`, the IC50 turned out to be 15.4 µM.

For the compound `CCCCN(c1cc(OC)c(OC)c(OC)c1)c1cccc2ncccc12`, the IC50 worked out at 7.65 µM.

Regarding `CCCCN(c1ccc(OC)cc1)c1c2ccc(Cl)cc2nc2ccc(OC)cc12`, the IC50 is 9.04 µM.

Regarding `CCCCN(c1cc(OC)c(OC)c(OC)c1)c1ccnc2cc(Cl)ccc12`, the IC50 was determined as 14.7 µM.

In the case of `COc1ccc(/C=C\c2cc(OC)c(OC)c(OC)c2)cc1O` [COMBRETASTATIN A4], the IC50 was 0.014 µM.

Regarding `CCCCN(c1ccccc1)c1cccc2ncccc12`, the IC50 came out at 27.1 µM.

Consider `CCCCN(c1ccc(F)c(Cl)c1)c1cccc2ncccc12`, for which the IC50 stood at 29.5 µM.

As for `COc1cc(Nc2cccc3ncccc23)cc(OC)c1OC`, the IC50 was 1.28 µM.

Turning to `CCCCN(c1ccc(OC)cc1)c1cccc2ncccc12`, the IC50 was found to be 2.43 µM.

As to `COc1ccc(Nc2c3ccc(Cl)cc3nc3ccc(OC)cc23)cc1`, the IC50 is 4.98 µM.

Take `CCCCN(c1ccc(OC)cc1)c1ccnc(C)n1`: the 50% inhibitory concentration (IC50) came out at 9.06 µM.

`COc1cc(Nc2ccnc3cc(Cl)ccc23)cc(OC)c1OC`: the IC50 was 7.22 µM.

Consider `CN(c1ccccc1)c1cccc2ncccc12`, for which the IC50 is 18.1 µM.

With `COc1ccc(N(C)c2ccnc(C)n2)cc1`, the IC50 was 4.06 µM.

Regarding `COc1ccc(Nc2c3ccccc3nc3ccccc23)cc1`, the IC50 was 2.14 µM.

Take `CCCCN(c1cc(OC)c(OC)c(OC)c1)c1c2ccccc2nc2ccccc12`: the IC50 turned out to be 4.68 µM.

As to `CCCCN(c1ccc(OC)cc1)c1c2ccccc2nc2ccccc12`, the IC50 turned out to be 6.45 µM.

As to `COc1ccc(N(C)c2ccnc3cc(Cl)ccc23)cc1`, the IC50 amounted to 1.38 µM.

On to `COc1ccc(Nc2cccc3ncccc23)cc1`, for which the IC50 was found to be 4.57 µM.

Test system in the next test: not listed separately
In words: Inhibition of pig brain tubulin polymerization by spectrophotometric method. Format: tissue-based, Sus scrofa.
Details: not given
Regarding `COc1ccc(/C=C\c2cc(OC)c(OC)c(OC)c2)cc1O` [COMBRETASTATIN A4], the IC50 came out at 1840 nM.

In the next test the test system is MCF7. The experiment in a line: cells. The settings on record: Homo sapiens, MCF7, 48 h.
Description: Antiproliferative activity against human MCF7 cells assessed as reduction in cell viability measured after 48 hrs by MTT assay
In turn, `CCCCN(c1cc(OC)c(OC)c(OC)c1)c1ccnc(C)n1` yielded an IC50 of 20.2 µM.

`CCCCN(c1ccnc(C)c1)c1cc(OC)c(OC)c(OC)c1` came in with an IC50 of 17.3 µM.

Take `c1ccc(Nc2cccc3ncccc23)cc1`: the IC50 stood at 26.4 µM.

`COc1cc(N(C)c2ccnc(C)n2)cc(OC)c1OC` returned an IC50 of 14.5 µM.

Take `CCCCN(c1cc(OC)c(OC)c(OC)c1)c1cccc2ncccc12`: the concentration for half-maximal inhibition (IC50) was found to be 8.33 µM.

The compound `CCCCN(c1ccc(OC)cc1)c1c2ccc(Cl)cc2nc2ccc(OC)cc12` displayed an IC50 of 9.06 µM.

As for `CCCCN(c1cc(OC)c(OC)c(OC)c1)c1ccnc2cc(Cl)ccc12`, the half-inhibitory concentration (IC50) came to 16.4 µM.

`COc1ccc(/C=C\c2cc(OC)c(OC)c(OC)c2)cc1O` [COMBRETASTATIN A4] had an IC50 of 0.019 µM.

As to `CCCCN(c1ccccc1)c1cccc2ncccc12`, the IC50 was 20 µM.

Turning to `CCCCN(c1ccc(F)c(Cl)c1)c1cccc2ncccc12`, the half-maximal inhibitory concentration (IC50) was 33.8 µM.

As for `COc1cc(Nc2cccc3ncccc23)cc(OC)c1OC`, the midpoint of inhibition, the IC50, lay at 1.14 µM.

Compound `CCCCN(c1ccc(OC)cc1)c1cccc2ncccc12` displayed an IC50 of 3.78 µM.

On to `COc1ccc(Nc2c3ccc(Cl)cc3nc3ccc(OC)cc23)cc1`, for which half-maximal inhibition (IC50) required 5.17 µM.

`CCCCN(c1ccc(OC)cc1)c1ccnc(C)n1`: it took 9.38 µM to reach half-maximal inhibition (IC50).

Regarding `COc1cc(Nc2ccnc3cc(Cl)ccc23)cc(OC)c1OC`, the 50% inhibitory concentration (IC50) worked out at 9.27 µM.

In turn, `CN(c1ccccc1)c1cccc2ncccc12` displayed an IC50 of 20.4 µM.

`COc1ccc(N(C)c2ccnc(C)n2)cc1`: the concentration for half-maximal inhibition (IC50) is 5.32 µM.

`COc1ccc(Nc2c3ccccc3nc3ccccc23)cc1`: the IC50 was determined as 1.23 µM.

As to `CCCCN(c1cc(OC)c(OC)c(OC)c1)c1c2ccccc2nc2ccccc12`, 4.44 µM corresponded to half-maximal inhibition (IC50).

`CCCCN(c1ccc(OC)cc1)c1c2ccccc2nc2ccccc12` returned a half-inhibitory concentration (IC50) of 7.11 µM.

In the case of `COc1ccc(N(C)c2ccnc3cc(Cl)ccc23)cc1`, the midpoint of inhibition, the IC50, lay at 4.42 µM.

Consider `COc1ccc(Nc2cccc3ncccc23)cc1`, for which the IC50 is 4.64 µM.
